Test results reported in patent publication US12234233B2, “Crystal form of phosphodiesterase inhibitor, preparation method therefor and use thereof” (TRANSTHERA SCIENCES (NANJING), INC., priority 2019, dated 2025).

Tests used:
[1] = Stability test of different crystal forms; assay type: physicochemical
Description: Test substances: the crystal form I was prepared by example 2 of the present invention, the crystal form II was prepared by example 16 of the present invention, the crystal form III was prepared by example 20 of the present invention, the crystal form IV was prepared by example 24 of the present invention, the crystal form V was prepared by example 25 of the present invention, the crystal form VI was prepared by example 27 of the present invention, and the crystal form VII was prepared by example 31 of the present invention.
Method: the appropriate amount of different test substances were taken, and placed at 105° C. for 3 days, and at 60° C. and RH 92.5% under light for 5 days and 10 days, respectively; and the samples were collected on day 0, day 3, day 5 and day 10 to investigate the changes in the trait and content of the samples.
Table 5 and Table 6 show the results of the trait and content after placement at 105° C. for 3 days. Table 7 and Table 8 show the results of the trait and content after placement at 60° C. and RH 92.5% under light for 5 days. Table 9 and Table 10 show the results of the trait and content after placement at RH 92.5% under light for 10 days.

[2] = Stability test of crystal form I (influencing factors); assay type: physicochemical
Description: Test substances: the crystal form I was prepared by example 2 of the present invention.
Method: the appropriate amount of crystal form I samples were taken and placed openly at 60° C. and RH 92.5% under light; and the samples were collected on day 5, day 10, and day 30 to investigate changes in the trait, content, and moisture of the samples.

[3] = Placed openly at 60° C. for 5 days
[4] = Placed openly at 60° C. for 10 days
[5] = Placed openly at 60° C. for 30 days
[6] = Placed openly at RH 92.5% for 5 days
[7] = Placed openly at RH 92.5% for 10 days
[8] = Placed openly at RH 92.5% for 30 days
[9] = Placed openly under light for 5 days
[10] = Placed openly under light for 10 days
[11] = placed openly under light for 30 days

Content ([1]; 0 day): 99.7% | Trait ([1]; 0 day): Yellow powder | Content ([1]; Placed at 60° C. for 5 days): 99.8% | Content ([1]; Placed at RH 92.5% for 5 days): 99.7% | Content ([1]; Placed at RH 92.5% for 10 days): 100.3% | Trait ([1]; Placed at RH 92.5% for 10 days): Yellow powder | Content ([1]; Placed under light for 5 days): 99.7% | Content ([1]; Placed under light for 10 days): 99.3% | Trait ([1]; Placed under light for 10 days): Yellow powder | Content ([2]; 0 day): 99.7% | Moisture ([2]; 0 day): 0.08% | Trait ([2]; 0 day): Yellow powder | Content [2, 3]: 99.8% | Moisture [2, 3]: 0.06% | Trait [2, 3]: Yellow powder | Content [2, 4]: 99.8% | Moisture [2, 4]: 0.10% | Trait [2, 4]: Yellow powder | Content [2, 5]: 100.1% | Moisture [2, 5]: 0.12% | Trait [2, 5]: Yellow powder | Content [2, 6]: 99.7% | Moisture [2, 6]: 0.04% | Trait [2, 6]: Yellow powder | Content [2, 7]: 100.3% | Moisture [2, 7]: 0.09% | Trait [2, 7]: Yellow powder | Content [2, 8]: 100.5% | Moisture [2, 8]: 0.09% | Trait [2, 8]: Yellow powder | Content [2, 9]: 99.7% | Moisture [2, 9]: 0.06% | Trait [2, 9]: Yellow powder | Content [2, 10]: 99.3% | Moisture [2, 10]: 0.13% | Trait [2, 10]: Yellow powder | Content [2, 11]: 100.0% | Moisture [2, 11]: 0.09% | Trait [2, 11]: Yellow powder
SMILES: CCc1cc2c(N3CCC(C)(OC)CC3)c(C#N)c(=O)[nH]c2cn1 [Crystal form I, 6-ethyl-4-(4-methoxy-4-methylpiperidin-1-yl)-2-oxo-1,2-dihydro-1,7-diazanaphthal ene-3-carbonitrile]
